Literature values, collected in US7439254B2, “Compounds, compositions, and methods” (Cytokinetics, Inc., priority 2003, dated 2008).

Test system: A549 cells
Settings: data provided by National Cancer Institute, Developmental Therapeutic Program

| SMILES | GI50 [µM] |
| --- | --- |
| CC(=O)O[C@H]1C(=O)[C@@]2(C)[C@H]([C@H](OC(=O)c3ccccc3)[C@]3(O)C[C@H](OC(=O)[C@H](O)[C@@H](NC(=O)c4ccccc4)c4ccccc4)C(C)=C1C3(C)C)[C@]1(OC(C)=O)CO[C@@H]1C[C@@H]2O [paclitaxel] | 0.004 |
| O=c1[nH]cc(F)c(=O)[nH]1 [5-fluorouracil] | 1 |
| NC(=O)NO [hydroxyurea] | 500 |
| COc1cccc2c1C(=O)c1c(O)c3c(c(O)c1C2=O)C[C@@](O)(C(=O)CO)C[C@@H]3O[C@H]1C[C@H](N)[C@H](O)[C@H](C)O1 [doxorubicin] | 0.063 |
